Converted amounts (≈) assume the structure as drawn. Read-outs that look alike come from different tables or passages of the source.
Experiments:
Mtb AccD6 = Mtb AccD6 (Mycobacterium tuberculosis, UniProt P9WQH5); assay: biochemical; assay type: biochemical; conditions: for IC50: 300 μM malonyl-CoA, inhibitor 10 μM to 2000 μM
Mtb strain mc^2-7000 = assay: microbe, parasite or virus in culture; assay type: cell-based, Mycobacterium tuberculosis; conditions: 6 days incubation at 37° C., resazurin, read on the 7th day
[1] = Mycobacterium tuberculosis, 144 h, read-out: MIC

Sequence of Mtb AccD6 (P9WQH5 whole entry, looked up): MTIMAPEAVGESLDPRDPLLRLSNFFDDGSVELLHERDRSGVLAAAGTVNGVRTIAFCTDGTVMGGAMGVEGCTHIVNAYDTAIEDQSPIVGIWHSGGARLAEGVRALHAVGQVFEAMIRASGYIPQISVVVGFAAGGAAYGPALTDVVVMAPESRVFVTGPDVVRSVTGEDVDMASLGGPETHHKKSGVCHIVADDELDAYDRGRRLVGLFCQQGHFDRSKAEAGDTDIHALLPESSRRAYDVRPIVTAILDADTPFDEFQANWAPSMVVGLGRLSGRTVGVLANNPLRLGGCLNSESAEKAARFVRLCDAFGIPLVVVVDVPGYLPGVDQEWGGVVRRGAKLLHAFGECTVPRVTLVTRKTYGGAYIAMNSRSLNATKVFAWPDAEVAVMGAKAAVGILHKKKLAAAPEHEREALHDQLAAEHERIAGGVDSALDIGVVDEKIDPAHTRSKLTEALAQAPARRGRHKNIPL

Row | SMILES | IC50 (Mtb AccD6; read-out: IC50) | MIC (Mtb strain mc^2-7000) | concentrations at which not toxic, s. cerevisiae cytotoxicity (S. cerevisiae) | concentrations at which not toxic, human fibroblast cytotoxicity (human fibroblast) | MIC (Mtb strain mc^2-7000; [1]) | IC50 (Mtb AccD6) | inhibition at 20 µM (Mtb AccD6; read-out: inhibition at 20 uM)
1 | CNC(=O)C(C)c1ccc(Oc2nc3cc(Cl)c(Cl)cc3s2)cc1 (centres unmarked) [NZ-394, 2-{4-[(5,6-dichloro-1,3-benzothiazol-2-yl)oxy]phenyl}-N-methylpropanamide] | 0.98 µM | Not active | ≥ 100 µM | ≥ 100 µM | – | – | –
2 | CC(C(=O)O)c1ccc(Oc2nc3ccc(F)cc3s2)cc1 (centres unmarked) [NZ-329, 2-{4-[(6-fluoro-1,3-benzothiazol-2-yl)oxy]phenyl}propanoic acid] | 0.37 µM | – | ≥ 100 µM | ≥ 100 µM | 12 µM (≈ 3.81 µg/mL) | – | –
3 | CC(C)NC(=O)Nc1ccc(Oc2nc3cc(F)ccc3s2)cc1 [NZ-373, 1-{4-[(5-fluoro-1,3-benzothiazol-2-yl)oxy]phenyl}-3-(propan-2-yl)urea] | 1.66 µM | Not Active | ≥ 100 µM | ≥ 100 µM | – | – | –
4 | O=C(O)C(O)c1ccc(Oc2nc3ccc(Cl)cc3s2)cc1 (centres unmarked) [NZ-337, 2-{4-[(6-chloro-1,3-benzothiazol-2-yl)oxy]phenyl}-2-hydroxyacetic acid] | 2.3 µM | – | ≥ 100 µM | ≥ 100 µM | 25 µM (≈ 8.39 µg/mL) | – | –
5 | CNC(=O)Cc1ccc(Oc2nc3ccc(Cl)cc3s2)cc1OC [NZ-392, 2-{4-[(6-chloro-1,3-benzothiazol-2-yl)oxy]-2-methoxyphenyl}-N-methylacetamide] | 7.18 µM | – | ≥ 100 µM | ≥ 100 µM | 7.28 µM (≈ 2.64 µg/mL) | – | –
6 | CNC(=O)Cc1ccc(Oc2nc3ccc(F)cc3s2)cc1O [NZ-395, 2-{4-[(6-fluoro-1,3-benzothiazol-2-yl)oxy]-2-hydroxyphenyl}-N-methylacetamide] | 0.16 µM | – | ≥ 100 µM | ≥ 100 µM | 0.6 to 0.9 µM (≈ 0.199 to 0.299 µg/mL) | – | –
7 | CONC(=O)Cc1ccc(Oc2cnc3cc(Cl)ccc3n2)cc1 [NZ-301, 2-{4-[(6-chloroquinoxalin-2-yl)oxy]phenyl}-N-methoxyacetamide] | 0.265 µM | – | ≥ 100 µM | ≥ 100 µM | 12 µM (≈ 4.13 µg/mL) | – | –
8 | CC(C)NC(=O)Nc1ccc(Oc2nc3ccc(Cl)cc3s2)c[n+]1[O-] [NZ-391, 1-{5-[(6-chloro-1,3-benzothiazol-2-yl)oxy]-1-oxo-1λ^5-pyridin-2-yl}-3-(propan-2-yl)urea] | – | Not Active | ≥ 100 µM | ≥ 100 µM | – | Not Active | –
9 | O=C(COc1ccc(Oc2cnc3cc(Cl)ccc3n2)cc1)NOCC1CC1 [NZ-323, 2-{4-[(6-chloroquinoxalin-2-yl)oxy]phenoxy}-N-(cyclopropylmethoxy)acetamide] | 3.6 µM | – | ≥ 100 µM | ≥ 100 µM | 6 µM (≈ 2.4 µg/mL) | – | –
10 | CONC(=O)C(C)(C)Oc1ccc(Oc2nc3ccc(Cl)cc3s2)cc1 [NZ-319, 2-{4-[(6-chloro-1,3-benzothiazol-2-yl)oxy]phenoxy}-N-methoxy-2-methylpropanamide] | 20 µM | – | ≥ 100 µM | ≥ 100 µM | 6 µM (≈ 2.36 µg/mL) | – | –
11 | CC(C(=O)N1CCOCC1)c1ccc(Oc2nc3ccc(Cl)cc3s2)cc1 (centres unmarked) [NZ-365, 2-{4-[(6-chloro-1,3-benzothiazol-2-yl)oxy]phenyl}-1-(morpholin-4-yl)propan-1-one] | 6.2 µM | – | 50 to 100 µM | ≥ 100 µM | 18.9 µM (≈ 7.61 µg/mL) | – | –
12 | CC(C)NC(=O)Nc1ccc(Oc2nc3cc(F)c(F)cc3s2)cc1 [NZ-382, 1-{4-[(5,6-difluoro-1,3-benzothiazol-2-yl)oxy]phenyl}-3-(propan-2-yl)urea] | 0.27 to 0.35 µM | Not Active | 50 to 100 µM | ≥ 100 µM | – | – | –
13 | O=C(O)Cn1ccc(Oc2nc3ccc(Cl)cc3s2)cc1=O [NZ-397, 2-{4-[(6-chloro-1,3-benzothiazol-2-yl)oxy]-2-oxo-1,2-dihydropyridin-1-yl}acetic acid] | 0.45 µM | Not Active | ≥ 100 µM | ≥ 100 µM | – | – | –
14 | CONC(=O)Cc1ccc(Oc2nc3ccc(F)cc3s2)cc1 [NZ-300, 2-{4-[(6-fluoro-1,3-benzothiazol-2-yl)oxy]phenyl}-N-methoxyacetamide] | 0.82 µM | – | ≥ 100 µM | ≥ 100 µM | 7.5 µM (≈ 2.49 µg/mL) | – | –
15 | CC(C)ONC(=O)COc1ccc(Oc2cnc3cc(Cl)ccc3n2)cc1 [NZ-326, 2-{4-[(6-chloroquinoxalin-2-yl)oxy]phenoxy}-N-(propan-2-yloxy)acetamide] | 2.5 to 4.4 µM | – | ≥ 100 µM | ≥ 100 µM | 3 µM (≈ 1.16 µg/mL) | – | –
16 | CC(C)NC(=O)Nc1ccc(Oc2nc3ccc(C#N)cc3s2)cc1 [NZ-377, 1-{4-[(6-cyano-1,3-benzothiazol-2-yl)oxy]phenyl}-3-(propan-2-yl)urea] | 7.9 µM | Not Active | ≥ 100 µM | ≥ 100 µM | – | – | –
17 | O=C(O)COc1ccc(Oc2nc3ccc(F)cc3s2)cc1 [NZ-304, 2-{4-[(6-fluoro-1,3-benzothiazol-2-yl)oxy]phenoxy}acetic acid] | 3.4 µM | – | ≥ 100 µM | ≥ 100 µM | 25 µM (≈ 7.98 µg/mL) | – | –
18 | COC(=O)C(O)c1ccc(Oc2nc3ccc(Cl)cc3s2)cc1 (centres unmarked) [NZ-336, methyl 2-{4-[(6-chloro-1,3-benzothiazol-2-yl)oxy]phenyl}-2-hydroxyacetate] | – | – | 50 to 100 µM | 50 to 100 µM | 12 µM (≈ 4.2 µg/mL) | – | –
19 | CONC(=O)C(C)c1ccc(Oc2nc3ccc(OC)cc3s2)cc1 (centres unmarked) [NZ-335, N-methoxy-2-{4-[(6-methoxy-1,3-benzothiazol-2-yl)oxy]phenyl}propanamide] | – | – | ≥ 100 µM | ≥ 100 µM | 12 µM (≈ 4.3 µg/mL) | – | –
20 | COC(=O)COc1ccc(Oc2nc3ccc(F)cc3s2)cc1 [NZ-303, methyl 2-{4-[(6-fluoro-1,3-benzothiazol-2-yl)oxy]phenoxy}acetate] | – | – | – | ≥ 100 µM | 4.5 µM | – | 50%
21 | CONC(=O)C(C)(C)Oc1ccc(Oc2cnc3cc(Cl)ccc3n2)cc1 [NZ-316, 2-{4-[(6-chloroquinoxalin-2-yl)oxy]phenoxy}-N-methoxy-2-methylpropanamide] | – | – | ≥ 100 µM | ≥ 100 µM | 6 µM (≈ 2.33 µg/mL) | – | –
22 | CN(C)C(=O)Nc1ccc(Oc2cnc3cc(Cl)ccc3n2)cc1 [NZ-343, 1-{4-[(6-chloroquinoxalin-2-yl)oxy]phenyl}-3,3-dimethylurea] | 0.4 µM | – | – | ≥ 100 µM | 25 µM (≈ 8.57 µg/mL) | – | –
23 | CCOC(=O)[C@@H](C)Oc1ccc(Oc2nc3ccc(F)cc3s2)cc1 [NZ-251, ethyl (2R)-2-{4-[(6-fluoro-1,3-benzothiazol-2-yl)oxy]phenoxy}propanoate] | – | – | ≥ 100 µM | ≥ 100 µM | 0.23 µM (≈ 0.0831 µg/mL) | – | –
24 | CC(C)NC(=O)Nc1ccc(Oc2ccc3cc(Cl)ccc3n2)cc1 [NZ-346, 1-{4-[(6-chloroquinolin-2-yl)oxy]phenyl}-3-(propan-2-yl)urea] | 0.4 µM | – | – | ≥ 100 µM | 50 µM (≈ 17.8 µg/mL) | – | –
25 | CONC(=O)C(O)c1ccc(Oc2nc3ccc(Cl)cc3s2)cc1 (centres unmarked) [NZ-338, 2-{4-[(6-chloro-1,3-benzothiazol-2-yl)oxy]phenyl}-2-hydroxy-N-methoxyacetamide] | 7.2 µM | – | – | ≥ 100 µM | 25 µM (≈ 9.12 µg/mL) | – | –
26 | COC(=O)C(C)(C)Oc1ccc(Oc2nc3ccc(Cl)cc3s2)cc1 [NZ-317, methyl 2-{4-[(6-chloro-1,3-benzothiazol-2-yl)oxy]phenoxy}-2-methylpropanoate] | – | – | ≥ 100 µM | ≥ 100 µM | 6 µM (≈ 2.27 µg/mL) | – | –
27 | CC(C)NC(=O)Nc1ccc(Oc2nc3cc(Cl)c(Cl)cc3s2)cc1 [NZ-393, 1-{4-[(5,6-dichloro-1,3-benzothiazol-2-yl)oxy]phenyl}-3-(propan-2-yl)urea] | 5.07 µM | – | ≥ 100 µM | ≥ 100 µM | – | – | –
28 | CC(C)NC(=O)Nc1ccc(Oc2cnc3cc(F)ccc3n2)cc1 [NZ-345, 1-{4-[(6-fluoroquinoxalin-2-yl)oxy]phenyl}-3-(propan-2-yl)urea] | 0.5 µM | – | – | ≥ 100 µM | 25 µM (≈ 8.51 µg/mL) | – | –
29 | CN(C)C(=O)NCc1ccc(Oc2nc3ccc(Cl)cc3s2)cc1 [NZ-349, 1-({4-[(6-chloro-1,3-benzothiazol-2-yl)oxy]phenyl}methyl)-3,3-dimethylurea] | 7 µM | – | ≥ 100 µM | – | 8 µM (≈ 2.89 µg/mL) | – | –

Source: patent publication US10300071B2, “Compositions and methods for inhibition of mycobacteria” (priority 2014, dated 2019)
